Source: US10975093B2, “Fused 1,4-diazepines as BET protein degraders” (THE REGENTS OF THE UNIVERSITY OF MICHIGAN, priority 2016, dated 2021)

Columns and labels:
Assay type in all cases: cell-based
RS4; 11 = experiment: Cell growth inhibition, CellTiter-Glo Luminescent Cell Viability Assay, RS4;11; conditions: Homo sapiens, 96 h, RS4;11 cells, 4 days incubation
Method: (§1) Cell growth inhibitory activity of representative Compounds of the Disclosure was determined in various cell lines using CellTiter-Glo® Luminescent Cell Viability Assay. Cells were seeded in 384-well white opaque cell culture plates at a density of 2,000 cells/well with serially diluted compounds and incubated at 37° C. in an atmosphere of 95% air and 5% CO2 for 4 days. Cell viability was determined using the CellTiter-Glo® Luminescent Cell Viability Assay Kit (Promega, Madison, Wis.) according to the manufacture's instruction. Briefly, a volume of CellTiter-Glo® Reagent equal to the volume of cell culture medium was added to each well, and then the plates were incubated at room temperature for 10-20 minutes. The luminescent signal was measured using a Tecan Infinite M1000 multimode microplate reader (Tecan, Morrisville, N.C.). The half maximal inhibitory concentration (IC50) was calculated using the GraphPad Prism 5 software (GraphPad Software, La Jolla, Calif.).

MOLM-13 = experiment: Cell growth inhibition, CellTiter-Glo Luminescent Cell Viability Assay, MOLM-13; conditions: Homo sapiens, MOLM-13 cells, 4 days incubation
Outline: (§2)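 Cells were seeded at 2,000/well with serially diluted compound and grown 4 days at 37° C, 5% CO2. Viability was read by CellTiter-Glo luminescence after 10-20 min at room temperature, and IC50 was fitted from the dose-response.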

MDA-MB-231 = experiment: Cell growth inhibition, CellTiter-Glo Luminescent Cell Viability Assay, MDA-MB-231; conditions: Homo sapiens, MDA-MB-231 cells, 4 days incubation
Outline: as §2

MDA-MB-468 = experiment: Cell growth inhibition, CellTiter-Glo Luminescent Cell Viability Assay, MDA-MB-468; conditions: Homo sapiens, 96 h, MDA-MB-468 cells, 4 days incubation
Method: as §1

SMILES	IC50 (RS4; 11)	IC50 (MOLM-13; 96 h)	IC50 (MDA-MB-231; 96 h)	IC50 (MDA-MB-468)	IC50 (MDA-MB-231; MDA-MB-231, 96 h)	IC50 (MOLM-13; MOLM-13, 96 h)
Cc1c(C#Cc2ccc(CCCCOc3cccc4c3C(=O)N(C3CCC(=O)NC3=O)C4=O)cn2)sc2c1C(c1ccc(Cl)cc1)=N[C@@H](C)c1nnc(C)n1-2 (stereo partly drawn) [Cpd. No. 10, 4-(4-(6-(((S)-4-(4-chlorophenyl)-3,6,9-trimethyl-6H-thieno[3,2-f][1,2,4]triazolo[4,3-a][1,4]diazepin-2-yl)ethynyl)pyridin-3-yl)butoxy)-2-(2,6-dioxopiperidin-3-yl)isoindoline-1,3-dione]	0.26 nM	2.5 nM	1.6 nM	5.2 nM		
Cc1c(C#Cc2cnn(CCCC#Cc3cccc4c3CN(C3CCC(C)NC3=O)C4=O)c2)sc2c1C(c1ccc(Cl)cc1)=N[C@@H](C)c1nnc(C)n1-2 (stereo partly drawn) [compound 162, 4-(5-(4-(((S)-4-(4-chlorophenyl)-3,6,9-trimethyl-6H-thieno[3,2-f][1,2,4]triazolo[4,3-a][1,4]diazepin-2-yl)ethynyl)-1H-pyrazol-1-yl)pent-1-yn-1-yl)-2-(6-methyl-2-oxopiperidin-3-yl)isoindolin-1-one]	2.4 nM				22 nM	
Cc1c(C#Cc2ccc(OCCCCc3cccc4c3CN(C3CCC(=O)NC3=O)C4=O)cn2)sc2c1C(c1ccc(Cl)cc1)=N[C@@H](C)c1nnc(C)n1-2 (stereo partly drawn) [Cpd. No. 12, 3-(4-(4-((6-(((S)-4-(4-chlorophenyl)-3,6,9-trimethyl-6H-thieno[3,2-f][1,2,4]triazolo[4,3-a][1,4]diazepin-2-yl)ethynyl)pyridin-3-yl)oxy)butyl)-1-oxoisoindolin-2-yl)piperidine-2,6-dione]		1.2 nM	0.86 nM	3 nM		
Cc1c(C#Cc2ccc(CCCC#Cc3cccc4c3CN(C3CCC(=O)NC3=O)C4=O)cn2)sc2c1C(c1ccc(Cl)cc1)=NCc1nnc(C)n1-2 (stereo not shown) [Cpd. No. 13, 3-(4-(5-(6-((4-(4-chlorophenyl)-3,9-dimethyl-6H-thieno[3,2-f][1,2,4]triazolo[4,3-a][1,4]diazepin-2-yl)ethynyl)pyridin-3-yl)pent-1-yn-1-yl)-1-oxoisoindolin-2-yl)piperidine-2,6-dione]				32.4 nM	7.4 nM	6.4 nM
Cc1c(C#Cc2ccc(CCCC#Cc3cccc4c3CN(C3CCC(=O)NC3=O)C4=O)cn2)sc2c1C(c1ccc(Cl)cc1)=N[C@@H](C)c1nnc(C)n1-2 (stereo partly drawn) [Cpd. No. 14, 3-(4-(5-(6-(((S)-4-(4-chlorophenyl)-3,6,9-trimethyl-6H-thieno[3,2-f][1,2,4]triazolo[4,3-a][1,4]diazepin-2-yl)ethynyl)pyridin-3-yl)pent-1-yn-1-yl)-1-oxoisoindolin-2-yl)piperidine-2,6-dione]				1.1 nM	0.18 nM	0.24 nM
Cc1c(C#Cc2cnn(CCCCNc3cccc4c3CN(C3CCC(=O)NC3=O)C4=O)c2)sc2c1C(c1ccc(Cl)cc1)=N[C@@H](C)c1nnc(C)n1-2 (stereo partly drawn) [compound 145, 3-(4-((4-(4-(((S)-4-(4-chlorophenyl)-3,6,9-trimethyl-6H-thieno[3,2-f][1,2,4]triazolo[4,3-a][1,4]diazepin-2-yl)ethynyl)-1H-pyrazol-1-yl)butyl)amino)-1-oxoisoindolin-2-yl)piperidine-2,6-dione]	0.13 nM				0.39 nM	
Cc1c(C#Cc2cnn(CCCC#Cc3cccc4c3CN(C3CCC(C)NC3=O)C4=O)c2)sc2c1C(c1ccc(Cl)cc1)=NCc1nnc(C)n1-2 (stereo not shown) [compound 161, 4-(5-(4-((4-(4-chlorophenyl)-3,9-dimethyl-6H-thieno[3,2-f][1,2,4]triazolo[4,3-a][1,4]diazepin-2-yl)ethynyl)-1H-pyrazol-1-yl)pent-1-yn-1-yl)-2-(6-methyl-2-oxopiperidin-3-yl)isoindolin-1-one]	20.4 nM				71.8 nM	
Cc1c(C#Cc2cnn(CCCCOc3cccc4c3C(=O)N(C3CCC(=O)NC3=O)C4=O)c2)sc2c1C(c1ccc(Cl)cc1)=N[C@@H](C)c1nnc(C)n1-2 (stereo partly drawn) [Cpd. No. 32, 4-(4-(4-(((S)-4-(4-chlorophenyl)-3,6,9-trimethyl-6H-thieno[3,2-f][1,2,4]triazolo[4,3-a][1,4]diazepin-2-yl)ethynyl)-1H-pyrazol-1-yl)butoxy)-2-(2,6-dioxopiperidin-3-yl)isoindoline-1,3-dione]				3.5 nM	2.5 nM	
Cc1c(C#Cc2cnn(CCCCNc3cccc4c3C(=O)N(C3CCC(=O)NC3)C4=O)c2)sc2c1C(c1ccc(Cl)cc1)=NCc1nnc(C)n1-2 (stereo not shown) [compound 164, 4-((4-(4-((4-(4-chlorophenyl)-3,9-dimethyl-6H-thieno[3,2-f][1,2,4]triazolo[4,3-a][1,4]diazepin-2-yl)ethynyl)-1H-pyrazol-1-yl)butyl)amino)-2-(6-oxopiperidin-3-yl)isoindoline-1,3-dione]	74 nM				78.5 nM	
Cc1c(C#Cc2cnn(CCCC#Cc3cccc4c3C(=O)N(C3CCC(=O)NC3)C4=O)c2)sc2c1C(c1ccc(Cl)cc1)=NCc1nnc(C)n1-2 (stereo not shown) [compound 163, 4-(5-(4-((4-(4-chlorophenyl)-3,9-dimethyl-6H-thieno[3,2-f][1,2,4]triazolo[4,3-a][1,4]diazepin-2-yl)ethynyl)-1H-pyrazol-1-yl)pent-1-yn-yl)-2-(6-oxopiperidin-3-yl)isoindoline-1,3-dione]	216 nM				284 nM	
Cc1c(C#Cc2cnn(CCCCN3C(=O)CCC(N4Cc5c(N)cccc5C4=O)C3=O)c2)sc2c1C(c1ccc(Cl)cc1)=N[C@@H](C)c1nnc(C)n1-2 (stereo partly drawn) [compound 165, 3-(4-amino-1-oxoisoindolin-2-yl)-1-(4-(4-(((S)-4-(4-chlorophenyl)-3,6,9-trimethyl-6H-thieno[3,2-f][1,2,4]triazolo[4,3-a][1,4]diazepin-2-yl)ethynyl)-1H-pyrazol-1-yl)butyl)piperidine-2,6-dione]	3.7 nM				12.7 nM	
Cc1c(C#Cc2cnn(CCCC#Cc3cccc4c3C(=O)N(C3CCC(=O)NC3=O)C4=O)c2)sc2c1C(c1ccc(Cl)cc1)=N[C@@H](C)c1nnc(C)n1-2 (stereo partly drawn) [Cpd. No. 30, 4-(5-(4-(((S)-4-(4-chlorophenyl)-3,6,9-trimethyl-6H-thieno[3,2-f][1,2,4]triazolo[4,3-a][1,4]diazepin-2-yl)ethynyl)-1H-pyrazol-1-yl)pent-1-yn-1-yl)-2-(2,6-dioxopiperidin-3-yl)isoindoline-1,3-dione]				3.6 nM	3.7 nM	
Cc1c(C#Cc2ccc(OCCCCc3cccc4c3CN(C3CCC(=O)NC3=O)C4=O)cn2)sc2c1C(c1ccc(Cl)cc1)=NCc1nnc(C)n1-2 (stereo not shown) [Cpd. No. 11, 3-(4-(4-((6-((4-(4-chlorophenyl)-3,9-dimethyl-6H-thieno[3,2-f][1,2,4]triazolo[4,3-a][1,4]diazepin-2-yl)ethynyl)pyridin-3-yl)oxy)butyl)-1-oxoisoindolin-2-yl)piperidine-2,6-dione]		11.4 nM	18.1 nM	51 nM		
Cc1ncsc1-c1ccc([C@H](C)NC(=O)[C@@H]2C[C@@H](O)CN2C(=O)[C@@H](NC(=O)COCCOCCn2cc(C#Cc3sc4c(c3C)C(c3ccc(Cl)cc3)=N[C@@H](C)c3nnc(C)n3-4)cn2)C(C)(C)C)cc1 [compound 201, (2S,4R)-1-((S)-2-(2-(2-(2-(4-(((S)-4-(4-chlorophenyl)-3,6,9-trimethyl-6H-thieno[3,2-f][1,2,4]triazolo[4,3-a][1,4]diazepin-2-yl)ethynyl)-1H-pyrazol-1-yl)ethoxy)ethoxy)acetamido)-3,3-dimethylbutanoyl)-4-hydroxy-N-((S)-1-(4-(4-methylthiazol-5-yl)phenyl)ethyl)pyrrolidine-2-carboxamide]					24.9 nM	2.1 ± 0.32 nM
Cc1c(C#Cc2cnn(CCCN3CCC(Nc4cccc5c4CN(C4CCC(=O)NC4=O)C5=O)CC3)c2)sc2c1C(c1ccc(Cl)cc1)=N[C@@H](CC(N)=O)c1nnc(C)n1-2 (stereo partly drawn) [compound 190, 2-((6S)-4-(4-chlorophenyl)-2-((1-(3-(4-((2-(2,6-dioxopiperidin-3-yl)-1-oxoisoindolin-4-yl)amino)piperidin-1-yl)propyl)-1H-pyrazol-4-yl)ethynyl)-3,9-dimethyl-6H-thieno[3,2-f][1,2,4]triazolo[4,3-a][1,4]diazepin-6-yl)acetamide]					0.1 nM	0.05 nM
Cc1c(C#Cc2cnn(CCCCOc3cccc4c3CN(C3CCC(=O)NC3=O)C4=O)c2)sc2c1C(c1ccc(Cl)cc1)=N[C@@H](C)c1nnc(C)n1-2 (stereo partly drawn) [compound 147, 3-(4-(4-(4-(((S)-4-(4-chlorophenyl)-3,6,9-trimethyl-6H-thieno[3,2-f][1,2,4]triazolo[4,3-a][1,4]diazepin-2-yl)ethynyl)-1H-pyrazol-1-yl)butoxy)-1-oxoisoindolin-2-yl)piperidine-2,6-dione]	0.05 nM				0.08 nM	
Cc1c(C#Cc2cnn(CCCn3cnc(COc4cccc5c4C(=O)N(C4CCC(=O)NC4=O)C5=O)c3)c2)sc2c1C(c1ccc(Cl)cc1)=NCc1nnc(C)n1-2 (stereo not shown) [compound 155, 4-((1-(3-(4-((4-(4-chlorophenyl)-3,9-dimethyl-6H-thieno[3,2-f][1,2,4]triazolo[4,3-a][1,4]diazepin-2-yl)ethynyl)-1H-pyrazol-1-yl)propyl)-1H-imidazol-4-yl)methoxy)-2-(2,6-dioxopiperidin-3-yl)isoindoline-1,3-dione]					> 100 nM	> 100 nM
